Measurements: patent US6710049B2, “Azole compounds as anti-fungal agents” (Ranbaxy Laboratories Limited, priority 2000, dated 2004)

Legend:
P variotii 22319 [1] = test: MIC determination (NCCLS broth method); type: cell-based, Paecillomyces variotii
Excerpt: (§1) The in-vitro evaluation of the antifungal activity of the compounds can be performed by determining the minimum inhibitory concentration (MIC) as shown in Table 1 which is the concentration of the test compound in Rosewell Park Memorial Institute (RPMI) 1640 liquid medium buffered with 3-(Morpholino)propanesulphonic acid (MOPS) to pH 7, at which there is significant inhibition of the particular fungi. In practice the National Committee for Clinical Laboratory Standard (NCCLS) M27A document for Candida and Cryptococcus and M38P for Aspergillus was used to determine the MIC against yeast and filamentous fungi with suitable modifications for dermatophytes to other filamentous fungi. Three quality control strains were included each time the MIC were determined and readings recorded only when the Quality Control results fell into the acceptable range. After MIC results had been recorded, 100 μl from each of the well showing no growth was spread over Sabouraud Dextrose Agar (SDA) to determine the minimum fungicidal concentration (MFC) as shown in Table 2.

C albicans A-26 = test: MIC determination (NCCLS broth method); type: cell-based, Candida albicans
Excerpt: as §1

C albicans Y01.19 = test: MIC determination (NCCLS broth method); type: cell-based, Candida albicans
Excerpt: as §1

A flavus E2 - 1043 = test: MIC determination (NCCLS broth method); type: cell-based
Excerpt: as §1

A flavus E3 - 1044 = test: MIC determination (NCCLS broth method); type: cell-based
Excerpt: as §1

A flavus E4 - 1042 = test: MIC determination (NCCLS broth method); type: cell-based
Excerpt: as §1

A flavus P2 - 1045 = test: MIC determination (NCCLS broth method); type: cell-based
Excerpt: as §1

A flavus P3 - 1041 = test: MIC determination (NCCLS broth method); type: cell-based
Excerpt: as §1

A niger E5 - 1047 = test: MIC determination (NCCLS broth method); type: cell-based
Excerpt: as §1

A niger P1 - 1046 = test: MIC determination (NCCLS broth method); type: cell-based
Excerpt: as §1

Alternaria 1051 = test: MIC determination (NCCLS broth method); type: cell-based
Excerpt: as §1

C glabrata 90030 = test: MIC determination (NCCLS broth method); type: cell-based
Excerpt: as §1

C krusei 6258 = test: MIC determination (NCCLS broth method); type: cell-based
Excerpt: as §1

C krusei 766.1 = test: MIC determination (NCCLS broth method); type: cell-based
Excerpt: as §1

C parapsilosis 22019 = test: MIC determination (NCCLS broth method); type: cell-based
Excerpt: as §1

C tropicalis 750 = test: MIC determination (NCCLS broth method); type: cell-based
Excerpt: as §1

Fusarium 1050 = test: MIC determination (NCCLS broth method); type: cell-based
Excerpt: as §1

Fusarium 1827C = test: MIC determination (NCCLS broth method); type: cell-based
Excerpt: as §1

Fusarium 2960C = test: MIC determination (NCCLS broth method); type: cell-based
Excerpt: as §1

Mucor (Ceylon) = test: MIC determination (NCCLS broth method); type: cell-based
Excerpt: as §1

Penicillium 1641 = test: MIC determination (NCCLS broth method); type: cell-based
Excerpt: as §1

Penicillium 191 = test: MIC determination (NCCLS broth method); type: cell-based
Excerpt: as §1

Penicillium 2548 = test: MIC determination (NCCLS broth method); type: cell-based
Excerpt: as §1

Penicillium 3162 = test: MIC determination (NCCLS broth method); type: cell-based
Excerpt: as §1

Penicillium H - 1048 = test: MIC determination (NCCLS broth method); type: cell-based
Excerpt: as §1

Penicillium I - 1049 = test: MIC determination (NCCLS broth method); type: cell-based
Excerpt: as §1

Rhizopus (Ceylon) = test: MIC determination (NCCLS broth method); type: cell-based
Excerpt: as §1

Rhizopus 1052 = test: MIC determination (NCCLS broth method); type: cell-based
Excerpt: as §1

A fumigatus 1008 [2] = test: MIC determination (NCCLS broth method); type: cell-based, Aspergillus fumigatus
Excerpt: as §1

A fumigatus I - 1011 = test: MIC determination (NCCLS broth method); type: cell-based, Aspergillus fumigatus
Excerpt: as §1

A fumigatus II - 1012 = test: MIC determination (NCCLS broth method); type: cell-based, Aspergillus fumigatus
Excerpt: as §1

A fumigatus J - 1032 = test: MIC determination (NCCLS broth method); type: cell-based, Aspergillus fumigatus
Excerpt: as §1

A fumigatus K - 1033 = test: MIC determination (NCCLS broth method); type: cell-based, Aspergillus fumigatus
Excerpt: as §1

A fumigatus L - 1034 = test: MIC determination (NCCLS broth method); type: cell-based, Aspergillus fumigatus
Excerpt: as §1

A fumigatus PGI - 1023 = test: MIC determination (NCCLS broth method); type: cell-based, Aspergillus fumigatus
Excerpt: as §1

A fumigatus SI-1 - 1019 [3] = test: MIC determination (NCCLS broth method); type: cell-based, Aspergillus fumigatus
Excerpt: as §1

Penicilliuim 2306 = test: MIC determination (NCCLS broth method); type: cell-based, Penicillium
Excerpt: as §1

P variotii 22319 [4] = test: MFC determination (subculture on Sabouraud Dextrose Agar); type: cell-based, Paecillomyces variotii
Excerpt: as §1

A fumigatus 1008 [5] = test: as above; type: cell-based, Aspergillus fumigatus
Excerpt: as §1

A fumigatus SI-1 - 1019 [6] = test: as above; type: cell-based, Aspergillus fumigatus
Excerpt: as §1

C[C@@H]1[C@H](O)[C@@H](C)/C=C/C=C/C=C/C=C/C=C/C=C/C=C/[C@H](O[C@@H]2O[C@H](C)[C@@H](O)[C@H](N)[C@@H]2O)C[C@@H]2O[C@](O)(C[C@@H](O)C[C@@H](O)[C@H](O)CC[C@@H](O)C[C@@H](O)CC(=O)O[C@H]1C)C[C@H](O)[C@H]2C(=O)O [Amphotericin-B, Amphotericin B]
Minimum Inhibitory Concentration (MIC) (P variotii 22319 [1]): 0.03 µg/mL | Minimum Inhibitory Concentration (MIC) (C albicans A-26): 0.25 µg/mL | Minimum Inhibitory Concentration (MIC) (C albicans Y01.19): 0.125 µg/mL | Minimum Inhibitory Concentration (MIC) (A flavus E2 - 1043): 1 µg/mL | Minimum Inhibitory Concentration (MIC) (A flavus E3 - 1044): 1 µg/mL | Minimum Inhibitory Concentration (MIC) (A flavus E4 - 1042): 0.125 µg/mL | Minimum Inhibitory Concentration (MIC) (A flavus P2 - 1045): 1 µg/mL | Minimum Inhibitory Concentration (MIC) (A flavus P3 - 1041): 0.5 µg/mL | Minimum Inhibitory Concentration (MIC) (A niger E5 - 1047): 0.25 µg/mL | Minimum Inhibitory Concentration (MIC) (A niger P1 - 1046): 0.25 µg/mL | Minimum Inhibitory Concentration (MIC) (Alternaria 1051): 1 µg/mL | Minimum Inhibitory Concentration (MIC) (C glabrata 90030): 0.25 µg/mL | Minimum Inhibitory Concentration (MIC) (C krusei 6258): 0.25 µg/mL | Minimum Inhibitory Concentration (MIC) (C krusei 766.1): 0.25 µg/mL | Minimum Inhibitory Concentration (MIC) (C parapsilosis 22019): 0.25 µg/mL | Minimum Inhibitory Concentration (MIC) (C tropicalis 750): 0.25 µg/mL | Minimum Inhibitory Concentration (MIC) (Fusarium 1050): 0.5 µg/mL | Minimum Inhibitory Concentration (MIC) (Fusarium 1827C): >128 µg/mL | Minimum Inhibitory Concentration (MIC) (Fusarium 2960C): 0.5 µg/mL | Minimum Inhibitory Concentration (MIC) (Mucor (Ceylon)): 0.06 µg/mL | Minimum Inhibitory Concentration (MIC) (Penicillium 1641): 0.06 µg/mL | Minimum Inhibitory Concentration (MIC) (Penicillium 191): 0.25 µg/mL | Minimum Inhibitory Concentration (MIC) (Penicillium 2548): 0.03 µg/mL | Minimum Inhibitory Concentration (MIC) (Penicillium 3162): 0.25 µg/mL | Minimum Inhibitory Concentration (MIC) (Penicillium H - 1048): 0.25 µg/mL | Minimum Inhibitory Concentration (MIC) (Penicillium I - 1049): 0.25 µg/mL | Minimum Inhibitory Concentration (MIC) (Rhizopus (Ceylon)): 64 µg/mL | Minimum Inhibitory Concentration (MIC) (Rhizopus 1052): 0.06 µg/mL | Minimum Inhibitory Concentration (MIC) (A fumigatus 1008 [2]): 0.25 µg/mL | Minimum Inhibitory Concentration (MIC) (A fumigatus I - 1011): 0.25 µg/mL | Minimum Inhibitory Concentration (MIC) (A fumigatus II - 1012): 0.125 µg/mL | Minimum Inhibitory Concentration (MIC) (A fumigatus J - 1032): 0.25 µg/mL | Minimum Inhibitory Concentration (MIC) (A fumigatus K - 1033): 0.125 µg/mL | Minimum Inhibitory Concentration (MIC) (A fumigatus L - 1034): 0.25 µg/mL | Minimum Inhibitory Concentration (MIC) (A fumigatus PGI - 1023): 0.125 µg/mL | Minimum Inhibitory Concentration (MIC) (A fumigatus SI-1 - 1019 [3]): 0.5 µg/mL | Minimum Inhibitory Concentration (MIC) (Penicilliuim 2306): 0.25 µg/mL | Minimum Fungicidal Concentration (MFC) (P variotii 22319 [4]): 2 µg/mL | Minimum Fungicidal Concentration (MFC) (A fumigatus 1008 [5]): 1 µg/mL | Minimum Fungicidal Concentration (MFC) (A fumigatus SI-1 - 1019 [6]): 2 µg/mL
